Measured values: patent US20230399661A1, “SHUTTLE AGENT PEPTIDES OF MINIMAL LENGTH AND VARIANTS THEREOF ADAPTED FOR TRANSDUCTION OF CAS9-RNP AND OTHER NUCLEOPROTEIN CARGOS” (priority 2020, published 2023)

What was measured:
HeLa cells = test: GFP-NLS transduction in the presence or absence of Cas9-RNP complex, flow cytometry; type: cell-based, Human; design: GFP transduction efficiency: concentration or dose not given beside the values; settings: for resistance/sensitivity of GFP transduction to inhibition by Cas9-RNP: presence vs absence of Cas9-RNP
Experimental: HeLa cells were plated (20 000 cells/well) in a 96 well-plate the day prior to the experiment in DMEM containing 10% FBS. A mix was prepared containing a synthetic peptide shuttle agent (10-30 μM), the GFP-NLS (10 μM) with or without a Cas9-NLS recombinant protein (2.5 μM) complexed with a crRNA/tracrRNA (2 μM) targeting the beta-2 microglobulin (B2M) gene and completed to 50 μL with PBS. Cells were washed once with PBS and the shuttle/GFP-NLS/Cas9-RNP mix was added to the cells and incubated for one minute. Then 100 μL DMEM containing 10% FBS was added to the mix. Cells were then immediately washed once with PBS and incubated in DMEM containing 10% FBS for two hours. Cells were the analyzed by flow cytometry.
To better understand the inhibitory effect of Cas9-RNP on shuttle agent transduction activity, HeLa cells were incubated with different peptides/shuttle agents and GFP cargo, in the presence or absence of Cas9-RNP, and delivery of GFP was assessed by flow cytometry, as described in Example 1. […] For some shuttle agents, the effect was particularly striking. For example, the GFP transduction efficiency for FSD268 decreased from 92% to 29%, the GFP transduction efficiency for FSD250 decreased from 83% to 13%, the GFP transduction efficiency for FSD10 decreased from 76% to 22%, and the GFP transduction efficiency for FSD395 decreased from 91% to 17%. […] Structure-activity relationships were explored further by repeating the above transduction experiments with shuttle agent variants sharing the same “core” amphipathic cationic alpha helical region as FSD10-15 (FIG. 4A), CM18 (FIG. 4B), and FSD356 (FIG. 4C).

CFF-16HBEge cells = test: Cas9-RNP delivery, B2M genome editing; type: cell-based, Human; settings: B2M knockout, versus non-treated negative control
Experimental: HeLa cells were plated (10 000 cells/well) in a 96 well-plate the day prior to the experiment in DMEM containing 10% FBS. CFF-16HBEge cells were plated (10 000 cells/well) in a 96 well-plate the day prior to the experiment in Alpha-MEM containing 10% FBS.
For Cas9-RNP or ABE-Cas9-RNP transduction, a mix of Cas9-NLS or ABE-Cas9 recombinant protein (2.5 μM) complexed with a crRNA/tracrRNA (2 μM) targeting the beta-2 microglobulin (B2M) gene were co-incubated with 10-20 μM of synthetic peptide shuttle agent in a final volume of 50 μL completed with PBS. Cells were washed once with PBS and the shuttle/Cas9-RNP complex was added to the cells for and incubated for 60 to 90 seconds. Then 100 μL of DMEM (HeLa) or Alpha-MEM (CFF-16HBEge) containing 10% FBS was added to the mix. Cells were then immediately washed once with PBS and incubated in DMEM (HeLa) or Alpha-MEM (CFF-16HBEge) containing 10% FBS.
Genome editing events resulting in the absence of B2M protein (knockout) at the cell surface were determined by flow cytometry 6 days post-transduction. Cells were washed once with PBS and incubated with the anti-B2 microglobulin antibody (PE conjugated) (0.5 μL of anti-B2M-PE in […] 0.5% BSA/PBS) for 45 minutes at room temperature. Cells were washed twice with PBS and detached with 50 µL of Trypsin-EDTA for 10 minutes at 37° C. then inactivated by adding 100 μL of media containing 10% FBS. The percentage of knockout cells (cells without B2M antibody signal) was determined by flow cytometry.
A similar genome editing experiment as in Example 6 was performed in the Human Bronchial Epithelial cell line model of cystic fibrosis, CFF-16HBEge.
Further transduction experiments in CFF-16HBEge cells were performed to compare the ability of shuttle agents to deliver functional Cas9-RNP genome editing versus ABE-Cas9-RNP base editing complexes. Variants of the shuttle agent FSD10 (FIG. 8A) were tested in parallel, and genome editing/base editing results as evaluated by next-generation sequencing (NGS) are shown in FIGS. 8B and 8C for Cas9-RNP and ABE-Cas9-RNP, respectively.

Substance	resistance/sensitivity of GFP transduction to inhibition by Cas9-RNP (HeLa cells)	further results
FSD424: FSD10-15 with flanking glycine/serine-rich residues (KWKLARAFARAIKKLGGSGGGSGGSGGGS; FSD424)	retained the peptide's resistance to Cas9-RNP	GFP transduction activity relative to FSD10-15 (HeLa cells; FIG. 4A): improving GFP transduction activity over FSD10-15
His-CM18-9Arg: CM18-based shuttle agent having high C-terminal positive charge density (HHHHHHKWKLFKKIGAVLKVLTTGRRRRRRRRR; His-CM18-9Arg)	particularly marked sensitivities to inhibition by Cas9-RNP	
FSD10-15: 15-amino acid fragment of several longer shuttle agents, including FSD375, FSD10 and FSD210 (KWKLARAFARAIKKL; FSD10-15)	more resistant	GFP transduction efficiency (HeLa cells; absence of Cas9-RNP): 21%; GFP transduction efficiency (HeLa cells; presence of Cas9-RNP): 24%
FSD187: shuttle agent variant sharing the same core region as FSD174; higher C-terminal positive charge density (LLKIWSRLIKIWTQGRRLGARKPRKSRQ; FSD187)	generally more sensitive to Cas9-RNP inhibition	
FSD322: synthetic peptide shuttle agent (KWKLAKAWSRALKLWGGSGGGSARAQARQA; FSD322)		genome editing with Cas9-RNP as cargo (CFF-16HBEge cells): failed to show any increase in genome editing
FSD357: FSD356 with the last three C-terminal residues (QAG) replaced with three positively-charged arginine residues (RRR) (KWKLLKLWSRLLKLWGGSGGGSRRR; FSD357)		GFP transduction efficiency (HeLa cells; presence of Cas9-RNP): 4%
FSD251: shuttle agent containing three negatively-charged glutamate (E) residues in the peptide's C-terminal region (KWKLLKLWSRLLKLWGGSGGGSAEAAEQAE; FSD251)	least sensitivity to Cas9-RNP inhibition	
FSD241: shuttle agent: FSD10-15 core, C-terminal glycine/serine-rich linker fused to a second cationic domain (KWKLARAFARAIKKLGGSGGGSYARAAARQARA; FSD241)	more sensitive to inhibition by Cas9-RNP	
FSD440: CM18 with flanking glycine/serine-rich residues (GGSGGGSKWKLFKKIGAVLKVLTTGGGSGGGS; FSD440)	retained the peptide's resistance to Cas9-RNP	GFP delivery score (HeLa cells; FIGS. 3 and 4B, presence or absence of Cas9-RNP not stated): 3.6
FSD246: shuttle agent with N-terminal segment identical to FSD356; increased C-terminal positive charge density (KWKLLKLWSRLLKLWGGSGGGSYARAAARKAKRA; FSD246)	increased shuttle agent sensitivity to inhibition by Cas9-RNP	
FSD422: FSD10-15 with flanking histidine residues in place of the glycine/serine-rich residues (HHHHHHKWKLARAFARAIKKLHHHHHH; FSD422)	did not maintain the same level of Cas9-RNP resistance	
FSD210: shuttle agent: FSD10-15 core, C-terminal glycine/serine-rich linker fused to a second cationic domain (KWKLARAFARAIKKLGGSGGGSRRLKAKRAKA; FSD210)	more sensitive to inhibition by Cas9-RNP	
FSD446: shuttle agent with N-terminal segment identical to FSD356 and a C-terminal non-cationic hydrophilic segment (KWKLLKLWSRLLKLWGGSGGGSHTSDQTN; FSD446)		GFP transduction efficiency (HeLa cells; presence of Cas9-RNP): 34%
FSD356: shuttle agent whose last three C-terminal residues are QAG (KWKLLKLWSRLLKLWGGSGGGSQAG; FSD356)	more resistant	GFP transduction efficiency (HeLa cells; presence of Cas9-RNP): 51%
His-CM18-Transportan: CM18-based shuttle agent with lower C-terminal positive charge density (HHHHHHKWKLFKKIGAVLKVLTTGGWTLNSAGYLLKINLKALAALAKKIL; His-CM18-Transportan)	substantially more resistant to inhibition by Cas9-RNP	
FSD397: synthetic peptide shuttle agent (KLKLAKALAKALKKLGGSGGGSQAKAQAKQAK; FSD397)		genome editing with Cas9-RNP as cargo (CFF-16HBEge cells): failed to show any increase in genome editing
CM18-TAT: CM18-based shuttle agent having high C-terminal positive charge density (KWKLFKKIGAVLKVLTTGYGRKKRRQRRR; CM18-TAT)	particularly marked sensitivities to inhibition by Cas9-RNP	
His-CM18-TAT: CM18-based shuttle agent having high C-terminal positive charge density (HHHHHHKWKLFKKIGAVLKVLTTGYGRKKRRQRRR; His-CM18-TAT)	particularly marked sensitivities to inhibition by Cas9-RNP	
FSD432: shuttle agent: FSD10-15 core, C-terminal glycine/serine-rich linker fused to a second cationic domain (KWKLARAFARAIKKLGGSGGGSQAKAQAKQAK; FSD432)	more sensitive to inhibition by Cas9-RNP	
CM18-L2-PTD4: CM18-based shuttle agent with lower C-terminal positive charge density (KWKLFKKIGAVLKVLTTGGGSGGGSYARAAARQARA; CM18-L2-PTD4)	substantially more resistant to inhibition by Cas9-RNP	
FSD189: shuttle agent variant sharing the same core region as FSD174; higher C-terminal positive charge density (LLKIWSRLIKIWTQGRRLGRAQRAQRA; FSD189)	generally more sensitive to Cas9-RNP inhibition	
FSD268: synthetic peptide shuttle agent (KWKLLKLWSRLLKLWGGSGGGSQARAQARQAR; FSD268)		GFP transduction efficiency (HeLa cells; absence of Cas9-RNP): 92%; GFP transduction efficiency (HeLa cells; presence of Cas9-RNP): 29%
FSD174: synthetic peptide shuttle agent having higher C-terminal positive charge density (LLKIWSRLIKIWTQGRRLGGSGGGSARAARQAR; FSD174)	particularly sensitive to the inhibitory effect of Cas9-RNP	GFP transduction efficiency (HeLa cells; absence of Cas9-RNP): 66%; GFP transduction efficiency (HeLa cells; presence of Cas9-RNP): 11%; resistance/sensitivity of GFP transduction to inhibition by Cas9-RNP (HeLa cells; listed as FSD 174): generally more sensitive to Cas9-RNP inhibition
FSD296: shuttle agent with N-terminal segment identical to FSD356; polar residues (e.g., Q) between the C-terminal positively-charged residues (KWKLLKLWSRLLKLWQQGGSGGGSQARAQARQAR; FSD296)	increased shuttle agent sensitivity to inhibition by Cas9-RNP	
